Results from PubChem BioAssay (NCI).
Values joined by “and” are separate entries in the source; they are usually repeats but may differ in a detail not shown here. Identical values can stand only once.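 Step 1: Grow cells in 96-well plates. Step 2: Expose to compound for 48 hours at 5 concentrations. Step 3: Interpolate endpoints linearly; if unreached, use highest concentration. The concentration for 50% growth inhibition is given as GI50. TGI: concentration producing complete growth inhibition.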

Key:
Assay in all cases: NCI-60 cell line screen, 48 h
SK-OV-3 ovarian = test system: SK-OV-3 ovarian
SN12C renal = test system: SN12C renal
NCI-H23 lung = test system: NCI-H23 lung
HL-60(TB) leukemia = test system: HL-60(TB) leukemia
A549 NSCLC = test system: A549 NSCLC
HCT-116 colon = test system: HCT-116 colon
NCI-H460 lung = test system: NCI-H460 lung
TK-10 renal = test system: TK-10 renal
U251 CNS = test system: U251 CNS
SK-MEL-28 melanoma = test system: SK-MEL-28 melanoma

Compound	GI50 (SK-OV-3 ovarian)	TGI (SK-OV-3 ovarian)	GI50 (SN12C renal)	TGI (SN12C renal)	GI50 (NCI-H23 lung)	TGI (NCI-H23 lung)	GI50 (HL-60(TB) leukemia)	TGI (HL-60(TB) leukemia)	GI50 (A549 NSCLC)	TGI (A549 NSCLC) [µM]	GI50 (HCT-116 colon)	TGI (HCT-116 colon)	GI50 (NCI-H460 lung)	TGI (NCI-H460 lung) [µM]	GI50 (TK-10 renal)	TGI (TK-10 renal) [µM]	GI50 (U251 CNS)	TGI (U251 CNS) [µM]	GI50 (SK-MEL-28 melanoma)	TGI (SK-MEL-28 melanoma)
COc1cc(Nc2ncc(F)c(Nc3ccc4c(n3)N(COP(=O)(O)O)C(=O)C(C)(C)O4)n2)cc(OC)c1OC	0.972 µM and 0.707 µM	3.46 µM and 2.98 µM	1.01 µM and 1.05 µM	16.6 µM and > 10 µM	2.51 µM and 2.57 µM	22.7 µM and > 10 µM	4.19 µM and 6.05 µM	32.6 µM and > 10 µM	2.27 µM and 2.11 µM	> 26.8	3.25 µM and 3.02 µM	23.5 µM and > 10 µM	3.59 µM and 3.45 µM	> 100	0.774 µM and 0.768 µM	3.06	7.55 µM and 2 µM	> 100	3.69 µM and 5.05 µM	21 µM and > 10 µM
COC(=O)c1c2cccccc-2c(Cc2c3cccccc-3c(C(=O)OC)c2O)c1O	–	> 100 µM	–	> 100 µM	–	> 100 µM	–	> 100 µM	–	> 100	–	> 100 µM	–	> 100	–	> 100	–	> 100	–	> 100 µM
CCNC(=O)O[C@H]1CN[C@H](C#Cc2cc3ncnc(Nc4ccc(OCc5cccc(F)c5)c(Cl)c4)c3s2)C1	0.0299 µM	> 25 µM	5.71 µM	> 25 µM	9.13 µM	> 25 µM	5.71 µM	> 19.4 µM	5.29 µM	> 25	7.43 µM	> 25 µM	6.84 µM	> 25	0.198 µM	11.4	9.24 µM	> 25	> 25 µM	> 25 µM
C[N+]1=C(/C=C\C=C\c2ccccc2)C(C)(C)c2ccccc21	11.3 µM	23.9 µM	0.863 µM	12.4 µM	2.83 µM	11.5 µM	0.258 µM	1.62 µM	4.43 µM	19.6	3.3 µM	13.2 µM	4.44 µM	17.2	4.47 µM	15.7	1.59 µM	4.18	1.53 µM	3.46 µM
CN(Cc1cc(C(C)(C)C)cc(Br)c1O)Cc1cc(C(C)(C)C)cc(Br)c1O	–	22.2 µM	–	15.2 µM	–	9.88 µM	–	7.71 µM	–	13.7	–	9.46 µM	–	4.72	–	5.88	–	8.15	–	17.4 µM
C=C1CC2(OC1=O)C(=O)Nc1ccccc12 (stereo not given)	26.7 µM	> 100 µM	3.74 µM	14.1 µM	6.34 µM	23.1 µM	1.73 µM	3.85 µM	12.9 µM	34.3	3.16 µM	10.5 µM	6.48 µM	24.7	1.8 µM	4.09	13.1 µM	30.5	1.99 µM	4.26 µM
O=C1C(=Cc2c(O)cc(O)cc2O)C(=O)c2ccccc21	–	> 100 µM	–	37.6 µM	–	> 53.9 µM	–	43.5 µM	–	> 100	–	> 53.7 µM	–	> 67.7	–	> 67.5	–	> 57.2	–	> 60.3 µM
Cc1cc2c([nH]c3ccccc32)c2c1OC(C)(C)C1C3CC(C)(C)Oc4c(C)cc5c6ccccc6n(c5c43)C21 (stereo not given)	–	> 100 µM	–	> 100 µM	–	> 100 µM	–	> 100 µM	–	> 100	–	> 100 µM	–	> 100	–	> 100	–	> 100	–	> 100 µM
Cc1ncc(C(=O)Nc2ccc(CN3CCN(C)CC3)c(C(F)(F)F)c2)cc1C#Cc1cnc(N)cc1C#N	0.401 µM	1.8 µM	0.305 µM	2.32 µM	0.707 µM	3.21 µM	0.481 µM	2.85 µM	1.26 µM	3.93	0.182 µM	2.92 µM	0.417 µM	2.84	1.7 µM	3.83	1.63 µM	4.02	0.0584 µM	1.69 µM
C#CCOc1cccc(Nc2ncnc3cc(NC(=O)CCl)ccc23)c1	4.36 µM	17.2 µM	4.1 µM	17.3 µM	3.4 µM	16.7 µM	3.29 µM	12.5 µM	5.03 µM	17.9	1.96 µM	10.2 µM	3.64 µM	12.1	5.22 µM	19.3	2.13 µM	4.78	11 µM	24.4 µM
CN(C)CC/[N+]([O-])=C(/c1ccccc1)C12CC3CC(CC(C3)C1)C2	–	31.4 µM	–	31.9 µM	–	37.4 µM	–	26.1 µM	–	32.9	–	32 µM	–	35.1	–	30.7	–	29.7	–	29.9 µM
Cc1cccc(NC(=O)c2cccc([N+](=O)[O-])c2O)c1C	–	> 81.9 µM	–	> 100 µM	–	62.9 µM	–	22.1 µM	–	> 100	–	> 100 µM	–	> 69.6	–	> 100	–	> 100	–	> 100 µM
O=Cc1c(O)c(C(=O)Nc2ccc3[nH]c(=O)[nH]c3c2)cc2ccccc12	–	> 100 µM	–	> 100 µM	–	> 100 µM	–	> 100 µM	–	> 100	–	> 100 µM	–	> 100	–	> 100	–	> 100	–	> 100 µM
Cc1cc(Cl)ccc1NC(=O)CC1SC(=Nc2ccccc2Cl)NC1=O (stereo not given)	–	> 100 µM	–	> 100 µM	–	> 100 µM	–	40.4 µM	–	> 100	–	> 100 µM	–	> 100	–	> 100	–	> 100	–	> 100 µM
CC1OC(n2cc(F)c(=O)[nH]c2=O)C=CC1=O (stereo not given)	–	95.9 µM	–	31.8 µM	–	> 100 µM	–	70.3 µM	–	> 100	–	29.8 µM	–	56.8	–	30.7	–	27.9	–	31.5 µM
Cc1cnc(C(=O)Nc2nc3ccc(S(=O)(=O)Nc4ccc(C5(C(F)(F)F)CC5)cc4)cc3[nH]2)cn1	1.57 µM	22.7 µM	0.519 µM	5.87 µM	0.416 µM	5.98 µM	0.296 µM	0.924 µM	0.57 µM	9.66	0.452 µM	10.5 µM	0.351 µM	3.95	1.48 µM	12	0.57 µM	5.4	1.19 µM	12.2 µM
